SMILES strings stand for the structures.

Test [1] has as its system caterpillars of the armyworm (Spodoptera frugiperda). Put plainly: Spodoptera frugiperda spray test (SPODFR). In kind it is in vivo. The settings on record: maize leaf discs, after 7 days. In a few lines: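 Maize leaf discs sprayed with compound in acetone/DMF with alkylaryl polyglycol ether emulsifier (1000 ppm) in water, dried, then infested with armyworm caterpillars. Mortality (%) scored after 7 days; 100% = all caterpillars killed, 0% = none killed.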

For test [2], the system named is Tick nymphs (Amblyomma hebraeum). The experiment in a line: Amblyomma hebraeum test (AMBYHE), tick nymphs immersed. In kind it is in vivo. As to conditions: application rate 100 ppm; immersed one minute; after 42 days. On the procedure:
A. Amblyomma hebaraeum Test (AMBYHE)
Solvent: dimethyl sulphoxide
To produce a suitable preparation of active compound, 10 mg of active compound are mixed with 0.5 ml of dimethyl sulfoxide, and the concentrate is diluted with water to the desired concentration.
Tick nymphs (Amblyomma hebraeum) are placed into perforated plastic beakers and immersed in the desired concentration for one minute. The ticks are transferred on filter paper into a Petri dish and stored in a climate-controlled cabinet.
After 42 days, the kill in % is determined. 100% means that all of the ticks have been killed; 0% means that none of the ticks have been killed.

Test [3] deals with adult cat fleas (Ctenocephalides felis). The experiment in a line: Ctenocephalides felis in vitro contact test with adult cat fleas (T1). As to conditions: after 48 h. In a few lines: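 Test compound was dissolved in acetone p.a. (9 mg per 1 ml) and diluted as needed. 250 μl was spread evenly over the inner walls and floor of a 25 ml test tube by rotating on an orbital shaker for 2 h at 30 rpm. Once the solvent evaporated, 5-10 adult Ctenocephalides felis were added. Tubes were capped with a perforated plastic lid and kept horizontal at room temperature and ambient humidity.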

The subject of test [4] is cattle ticks (Boophilus microplus) Parkhurst strain, SP-resistant. Put plainly: Boophilus microplus dip test (BOOPMI Dip). In kind it is in vivo. As to conditions: application rate 100 ppm, assessed after 7 days. Put shortly: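 Adult engorged female SP-resistant Parkhurst ticks (8–10) were fully immersed in compound diluted in water from a DMSO solution, then kept in a climate-controlled room. After 7 days, fertile egg-laying was scored, with larval hatching checked at about 42 days; 100% efficacy means no fertile eggs.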

For test [5], the system named is adult cat fleas (Ctenocephalides felis). Put plainly: Ctenocephalides felis oral test (CTECFE). In kind it is in vivo. The settings on record: application rate 100 ppm in citrated cattle blood; after 2 days. Put shortly:
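About 20 unfed adult cat fleas fed through parafilm membrane on citrated cattle blood containing compound (DMSO stock diluted in blood to test concentration). Kill % scored after 2 days (100% = all fleas dead).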

Test [6] has as its system engorged adult female cattle ticks (Boophilus microplus). The experiment in a line: Boophilus microplus injection test (BOOPMI Inj). In kind it is in vivo. The settings on record: application rate 20 μg/animal; injection into abdomen; assessed after 7 days. Put shortly:
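DMSO solution of compound (1 μl) injected into the abdomen of 5 engorged adult female ticks, which are then held in a climate-controlled room. After 7 days, efficacy is scored from laying of fertile eggs, with unclear eggs kept until larval hatch (~42 days); 100% means no fertile eggs, 0% all fertile.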

Test [7] relates to greenhouse red spider mite (Tetranychus urticae). The experiment in a line: Tetranychus urticae spray test, OP-resistant (TETRUR). In kind it is in vivo. The settings on record: bean leaf discs, after 6 days. Put shortly: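 Bean leaf discs carrying all stages of OP-resistant Tetranychus urticae were sprayed with compound formulated in acetone/dimethylformamide and diluted in water with 1000 ppm alkylaryl polyglycol ether emulsifier. Mortality (% efficacy, 100% = all mites killed) scored after 6 days.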

The subject of test [8] is adult dog ticks (Rhipicephalus sanguineus). The experiment in a line: Rhipicephalus sanguineus in vitro contact test with adult brown dog ticks (T2). The settings on record: after 48 h. In a few lines: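 Acetone solutions coated onto test tube walls and floor, giving 5 μg/cm^2 at 900 ppm. Five to ten adult ticks held per tube in the dark at room temperature for 48 h, then heated at 45-50° C for up to 5 min; efficacy is the percentage of dead or moribund ticks unable to climb away.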

Test [9] concerns larvae of the mustard beetle (Phaedon cochleariae). Put plainly: Phaedon cochleariae spray test (PHAECO). In kind it is in vivo. The settings on record: Chinese cabbage leaf discs, after 7 days. Put shortly:
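Compound dissolved in acetone/dimethylformamide with alkylaryl polyglycol ether emulsifier, made up in water containing 1000 ppm emulsifier, then diluted to test concentrations and sprayed against mustard beetle larvae. Efficacy (% larvae killed) scored after 7 days.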

Test [10] has as its system adult houseflies (Musca domestica). Put plainly: Musca domestica test (MUSCDO). In kind it is in vivo. The settings on record: application rate 100 ppm; after 2 days. Put shortly:
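Compound dissolved in DMSO and diluted with water to the test concentration, applied with sugar solution on a sponge; 10 adult houseflies per vessel. Mortality scored after 2 days as % kill (100% all dead, 0% none).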

Test [11] deals with L1 larvae of the Australian sheep blowfly (Lucilia cuprina). The experiment in a line: Lucilia cuprina test (LUCICU). In kind it is in vivo. The settings on record: application rate 100 ppm; after 2 days. In a few lines:
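About 20 L1 larvae placed in a vessel with minced horsemeat plus compound (DMSO concentrate diluted with water to the desired concentration). Kill in % scored after 2 days, 100% meaning all larvae dead.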

For test [12], the system named is green peach aphid (Myzus persicae). Put plainly: Myzus persicae spray test (MYZUPE). In kind it is in vivo. As to conditions: application rate 500 g/ha; Chinese cabbage leaf discs; after 6 days. Put shortly: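 Chinese cabbage leaf discs infested with all aphid stages sprayed with compound in acetone/DMF with alkylaryl polyglycol ether emulsifier in water. Efficacy (% aphids killed; 100% all dead, 0% none) scored after 6 days.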

The test system of test [13] is bont tick nymphs (Amblyomma hebraeum). The settings on record: after 48 h.
For test [14], the system named is adult castor bean ticks (Ixodes ricinus). The experiment in a line: Ixodes ricinus in vitro contact test with adult castor bean ticks (T3). As to conditions: application rate 5 μg/cm^2; after 48 h. On the procedure:
T3. Ixodes ricinus-in vitro Contact Tests with Adult Castor Bean Ticks
For the coating of the test tubes, initially 9 mg of active compound are dissolved in 1 ml of acetone p.a. and then diluted with acetone p.a. to the desired concentration. By turning and rocking on an orbital shaker (2 h of rocking rotation at 30 rpm), 250 μl of the solution are distributed homogeneously on the internal walls and the floor of a 25 ml test tube. At 900 ppm active compound solution and 44.7 cm^2 internal surface, an area dose of 5 μg/cm^2 is achieved for homogeneous distribution.
After evaporation of the solvent, the tubes are populated with 5-10 adult castor bean ticks (Ixodes ricinus), sealed with a perforated plastic lid and incubated in a horizontal position in the dark at 22° C. and 90% humidity in a climate-controlled cabinet. After 48 h, the efficacy is determined. To this end, the ticks are knocked to the floor of the tube and incubated on a hotplate at 45-50° C. for at most 5 min. Ticks which remain motionless on the floor or move in an uncoordinated manner such that they are not able to deliberately avoid the heat by climbing upwards are considered to be dead or moribund.
An efficacy of 100% means that all ticks were dead or moribund. 0% efficacy means that none of the ticks had been damaged.

With `Cc1ncc(-c2cnn(-c3c(C(F)(F)F)c(C(F)(F)C(F)(F)F)nn3C)c2)cc1C(=O)NC1(C#N)CC1` [Ic-85], the efficacy in % in [1] (application rate 500 g/ha), in test [7] (application rate 500 g/ha), in test [9] (application rate 500 g/ha) and in [12] was 100% each time. Moreover, the “efficacy (kill in %)” value in test [2], in [5], in test [10] and in test [11] was 100% throughout. Besides, the “efficacy (dead or moribund fleas)” value in [3] (application rate 1 μg/cm^2) and in test [3] (application rate 5 μg/cm^2) was 100% in each case. In addition, the “efficacy (laying of fertile eggs)” value in [4] and in [6] was 100% throughout. For the same molecule, the “efficacy (dead or moribund ticks)” value in [8] (application rate 1 μg/cm^2) and in [8] (application rate 5 μg/cm^2) was 100% each time.
Take `Cn1nc(C(F)(F)C(F)(F)F)c(C(F)(F)F)c1-n1cc(-c2cc(Cl)c(Cl)c(C(=O)NC3(C#N)CC3)c2)cn1` [Ic-95]: the efficacy in % is reported as 100% in [1] (application rate 500 g/ha), 100% in [7] (application rate 500 g/ha), 100% in test [9] (application rate 500 g/ha) and 90% in test [12]. For the same molecule, the “efficacy (kill in %)” value in test [2], in test [5], in [10] and in test [11] was 100% throughout. For the same molecule, the “efficacy (dead or moribund fleas)” value in test [3] (application rate 1 μg/cm^2) and in test [3] (application rate 5 μg/cm^2) was 100% each time. For the same molecule, the “efficacy (laying of fertile eggs)” value in test [4] and in test [6] was 100% throughout. Also, the “efficacy (dead or moribund ticks)” value in test [13], in test [8] (application rate 1 μg/cm^2) and in test [8] (application rate 5 μg/cm^2) was 100% each time.
In the case of `Cc1cc(-c2cnn(-c3c(C(F)(F)F)c(C(F)(F)C(F)(F)F)nn3C)c2)cc(C(=O)NC2(C#N)CC2)c1Cl` [Ic-91], the efficacy in % in [1] (application rate 500 g/ha), in test [7] (application rate 500 g/ha), in [9] (application rate 500 g/ha) and in [12] was 100% throughout. Moreover, the “efficacy (kill in %)” value in test [2], in [5], in test [10] and in test [11] was 100% each time. The “efficacy (dead or moribund fleas)” value in [3] (application rate 1 μg/cm^2) and in test [3] (application rate 5 μg/cm^2) was 100% throughout. Further, the “efficacy (laying of fertile eggs)” value in test [4] and in [6] was 100% throughout. For the same molecule, in test [8] (application rate 5 μg/cm^2), the “efficacy (dead or moribund ticks)” value is 80%.
On to `Cn1nc(C(F)(F)C(F)(F)F)c(C(F)(F)F)c1-n1cc(-c2cnc(Cl)c(C(=O)NC3(C#N)CC3)c2)cn1` [Ic-83], for which the efficacy in % in test [1] (application rate 100 g/ha), in test [7] (application rate 100 g/ha) and in [9] (application rate 100 g/ha) was 100% throughout. Moreover, the “efficacy (kill in %)” value in test [2], in test [5], in test [10] and in [11] was 100% in each case. Moreover, the “efficacy (dead or moribund fleas)” value in [3] (application rate 1 μg/cm^2) and in test [3] (application rate 5 μg/cm^2) was 100% each time. The “efficacy (laying of fertile eggs)” value in test [4] and in test [6] was 100% throughout. Further, the “efficacy (dead or moribund ticks)” value in test [13], in test [14], in [8] (application rate 1 μg/cm^2) and in [8] (application rate 5 μg/cm^2) was 100% in each case.
Consider `Cn1nc(C(F)(F)C(F)(F)F)c(C(F)(F)F)c1-n1cc(-c2cc(C(=O)NC3CC3)c(F)cc2Cl)cn1` [Ic-49], for which the efficacy in % amounted to 100% in [1] (application rate 500 g/ha), 90% in test [7] (application rate 500 g/ha), 100% in [9] (application rate 500 g/ha) and 90% in test [12]. Moreover, the “efficacy (kill in %)” value in test [2], in [5], in test [10] and in [11] was 100% throughout. Besides, the “efficacy (dead or moribund fleas)” value in test [3] (application rate 1 μg/cm^2) and in [3] (application rate 5 μg/cm^2) was 100% each time. The “efficacy (laying of fertile eggs)” value in [4] and in test [6] was 100% throughout. Moreover, the “efficacy (dead or moribund ticks)” value in test [13], in [8] (application rate 1 μg/cm^2) and in test [8] (application rate 5 μg/cm^2) was 100% throughout.
With `Cn1nc(C(F)(F)C(F)(F)F)c(C(F)(F)F)c1-n1cc(-c2cc(F)c(F)c(C(=O)NC3(C#N)CC3)c2)cn1` [Ic-47], the efficacy in % in test [1] (application rate 500 g/ha), in [9] (application rate 500 g/ha) and in test [12] was 100% in each case. The “efficacy (kill in %)” value in [2], in [5], in test [10] and in [11] was 100% in each case. For the same molecule, the “efficacy (dead or moribund fleas)” value in [3] (application rate 1 μg/cm^2) and in [3] (application rate 5 μg/cm^2) was 100% throughout. Besides, the “efficacy (laying of fertile eggs)” value in test [4] and in [6] was 100% throughout. Besides, the “efficacy (dead or moribund ticks)” value in [13], in test [14], in test [8] (application rate 1 μg/cm^2) and in test [8] (application rate 5 μg/cm^2) was 100% each time.

These data come from patent publication US9487489B2, “Halogen-substituted pyrazole derivatives as pest-control agents” (BAYER CROPSCIENCE AKTIENGESELLSCHAFT, priority 2013, dated 2016).
